≈ marks a conversion by molar mass, not a printed value. Where two headings read alike, the source gives them in different places. Blank lines part the entries; values can stand above or below the compound they belong to.
Assays:
[1] = target: T1, M3 receptor (carbachol-induced detrusor contraction) (Rattus norvegicus, UniProt P08483); experiment: Carbachol-induced bladder strip (detrusor) contraction, ex vivo organ bath; format: cell-based, spontaneously hypertensive rats (SHRs); details: for remaining activity at 100 µg/mL: 100 μg/ml; for inhibition at 100 µg/mL: read-out: inhibition rate at 100 μg/ml; for IC10 value / IC50: carbachol (10 μM)-induced detrusor contraction, Mean ± SEM, n = 3
T1 construct: the whole bladder was immediately isolated to prepare detrusor strips in Krebs’ solution; from tissue; host or cells: bladder detrusor strips / bladder sections of SHR
T1 sequence (P08483 whole entry): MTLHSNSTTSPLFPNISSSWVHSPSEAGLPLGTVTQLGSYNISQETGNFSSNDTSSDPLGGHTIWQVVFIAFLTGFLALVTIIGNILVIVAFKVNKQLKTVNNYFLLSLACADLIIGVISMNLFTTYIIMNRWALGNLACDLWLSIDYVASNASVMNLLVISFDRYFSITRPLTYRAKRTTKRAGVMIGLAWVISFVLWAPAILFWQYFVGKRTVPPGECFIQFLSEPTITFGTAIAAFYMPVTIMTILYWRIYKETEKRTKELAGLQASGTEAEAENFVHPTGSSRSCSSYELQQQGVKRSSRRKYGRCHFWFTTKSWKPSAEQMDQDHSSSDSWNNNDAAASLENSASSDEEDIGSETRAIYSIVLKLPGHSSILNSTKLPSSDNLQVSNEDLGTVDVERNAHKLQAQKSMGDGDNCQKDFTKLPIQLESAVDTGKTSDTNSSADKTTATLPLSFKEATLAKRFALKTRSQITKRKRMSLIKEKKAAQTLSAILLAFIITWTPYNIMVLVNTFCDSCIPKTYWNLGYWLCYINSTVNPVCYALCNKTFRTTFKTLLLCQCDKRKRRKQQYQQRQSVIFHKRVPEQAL
Procedure: SHRs were sacrificed with carbon dioxide, and the whole bladder was immediately isolated to prepare detrusor strips in Krebs’ solution. Then, the strips were placed in a PanLab organ bath (Harvard Apparatus, Holliston, Massachusetts, United States) full of bubbling Krebs’ solution at 37°C. After stimulation with high-potassium solution, the strips were washed with Krebs’ solution three times. When the strips were incubated in Krebs’ solution until the tension was set at about 1.5 g, 0.1% DMSO was added for a 10-min incubation as a control, and then the muscle strip was stimulated to shrink by adding muscarinic agonist carbachol (10 μM), which is used for determinization of M3 receptor function in the bladder strip ([Liang and Leung, 2012]). Between two stimulations, the strips were washed out and balanced for 15 min. The contraction force of the bladder strip was recorded. After the experiment, detrusor strips were collected, dried, and weighed for data normalization. Data were recorded and analyzed using LabChart software (version 8.0).
Detrusor strips were isolated from SHRs and placed in the organ bath as mentioned previously, and then inhibitory activities of different fractions at 100 μg/ml were tested under carbachol (10 μM)-stimulated detrusor contraction.

[2] = Urine metabolites after oral Gegen water extract, quantified by UPLC-MS/MS; format: in vivo, spontaneously hypertensive rats (SHRs); details: spontaneously hypertensive rat (SHR), 3-week treatment, Mean ± SEM; for concentration at 2 h: 2 h after last dose of Gegen water extract 300 mg/kg p.o., n = 8, read-out: Content in urine, 2 h; for concentration at 4 h: 4 h after last dose of Gegen water extract 300 mg/kg p.o., n = 8, read-out: Content in urine, 4 h; for concentration at 6 h: 6 h after last dose of Gegen water extract 300 mg/kg p.o., n = 8, read-out: Content in urine, 6 h; for concentration at 8 h: 8 h after last dose of Gegen water extract 300 mg/kg p.o., n = 8, read-out: Content in urine, 8 h
Procedure: Urine samples were collected into ice-cold 15-ml Falcon tubes every 2 h and up to a total of 8 h, and the tubes were cooled by ice to prevent bacteria proliferation and water evaporation during collection. […] The gradient profile was set as follows: 10-40% B from 0 to 11 min; and 40-80% B from 11 to 15 min. The parameters for mass spectrometry were as follows: capillary, 2.5 kV for negative mode; sampling cone, 34 V; source offset, 80 V; cone gas flow, 150 L/h; desolvation gas flow, 650 L/h; and desolvation temperature, 350°C. Samples were kept at 4°C in the sample manager, and the column was maintained at 40°C. […] The precision and accuracy of the quantitation were satisfied according to FDA Bioanalytical Method Validation Guidance for Industry. Total ion chromatograms including retention times and MRM masses are shown in Supplementary Figure S2.

BSA = BSA (Bos taurus, UniProt P02769); experiment: Thermal shift control in PBS containing BSA and glycerin; format: binding; details: 100 μg/ml; no M3 receptor protein; read-out: ΔTm in PBS solution containing BSA and glycerin
Sequence of BSA (P02769 25-607): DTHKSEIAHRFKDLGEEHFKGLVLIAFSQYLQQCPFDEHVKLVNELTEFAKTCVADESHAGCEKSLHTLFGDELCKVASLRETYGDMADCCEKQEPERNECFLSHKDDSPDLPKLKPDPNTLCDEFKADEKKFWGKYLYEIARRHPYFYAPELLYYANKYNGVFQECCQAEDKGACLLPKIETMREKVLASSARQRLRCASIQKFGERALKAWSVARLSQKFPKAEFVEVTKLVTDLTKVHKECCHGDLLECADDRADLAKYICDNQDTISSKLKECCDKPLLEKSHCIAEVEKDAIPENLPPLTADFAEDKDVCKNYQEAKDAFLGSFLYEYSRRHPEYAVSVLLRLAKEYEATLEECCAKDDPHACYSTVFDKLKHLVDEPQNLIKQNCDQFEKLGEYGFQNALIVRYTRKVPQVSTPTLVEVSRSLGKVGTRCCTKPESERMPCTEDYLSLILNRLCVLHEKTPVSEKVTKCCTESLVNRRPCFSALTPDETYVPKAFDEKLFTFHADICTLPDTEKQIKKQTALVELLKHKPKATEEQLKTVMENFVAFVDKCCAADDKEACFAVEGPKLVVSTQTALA

[3] = target: T1, M3 receptor (carbachol-induced detrusor contraction); experiment: Carbachol-induced bladder strip (detrusor) contraction, ex vivo organ bath; format: cell-based, spontaneously hypertensive rats (SHRs); details: read-out: inhibition at 12.5 μg/ml
[4] = target: T2, recombinant human M3 receptor (Homo sapiens, UniProt P20309); experiment: Thermal shift assay with recombinant human M3 receptor protein; format: binding; details: for binding to the human M3 receptor protein (verdict in words): thermal shift; for Tm value of the human M3 receptor protein: compound at 100 μg/ml, control (1% DMSO) 64.17 ± 0.37°C, n = 3
T2 construct: Full-length recombinant human M3 muscarinic acetylcholine receptor membrane preparation was provided by Millipore Co; purchased Millipore Co. (Merck KGaA, Darmstadt, Germany)
T2 sequence (P20309 whole entry): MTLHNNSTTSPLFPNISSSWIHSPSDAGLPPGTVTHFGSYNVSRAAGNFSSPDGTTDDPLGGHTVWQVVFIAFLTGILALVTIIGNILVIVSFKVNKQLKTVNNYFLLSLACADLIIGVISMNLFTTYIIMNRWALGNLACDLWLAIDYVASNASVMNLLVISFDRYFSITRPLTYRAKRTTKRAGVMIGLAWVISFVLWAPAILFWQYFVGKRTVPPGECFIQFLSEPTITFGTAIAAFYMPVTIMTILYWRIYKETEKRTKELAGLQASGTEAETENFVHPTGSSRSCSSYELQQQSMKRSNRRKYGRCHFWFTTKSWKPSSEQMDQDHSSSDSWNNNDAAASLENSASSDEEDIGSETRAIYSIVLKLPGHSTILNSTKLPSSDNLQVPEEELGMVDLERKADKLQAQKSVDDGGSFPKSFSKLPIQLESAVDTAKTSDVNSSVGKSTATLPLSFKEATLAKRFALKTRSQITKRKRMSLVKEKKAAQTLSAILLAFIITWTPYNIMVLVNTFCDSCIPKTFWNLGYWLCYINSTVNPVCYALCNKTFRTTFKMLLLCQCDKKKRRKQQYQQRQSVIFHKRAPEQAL
Procedure: A thermal shift assay was performed to measure the binding of ligands to a recombinant human M3 receptor as modified from the previous study ([Huynh and Partch, 2015]). Briefly, after optimization of protein and dye concentrations, the M3 receptor protein (0.025 mg/ml) was incubated with different concentrations of tested compounds (0–100 μg/ml in 1% DMSO) in an 18 μl volume of ice-cold PBS for 2 h. Then, SYPRO Orange protein stain (2 μl; 8x as the final concentration diluted from original 5000x with PBS) was added, and the melt curve was detected using the Applied Biosystems QuantStudio5 real-time PCR system under the following conditions: ramp speed, standard; excitation wavelength at 470 nm (Reporter: FAM), and emission wavelength at 586 nm (Quencher: TAMRA) with no passive reference; an initial 2-min hold at 25°C (ramp rate, 1.6°C/s), ramping up in increments of 0.05°C/s to a final temperature of 99°C. Melt temperatures (Tm) were calculated using Protein Thermal Shift software v.1.4 (Applied Biosystems, Thermo, United States). The change in melt temperature (ΔTm) was equal to the Tm of control (1% DMSO) subtracted from the Tm of the tested compound. ΔTm higher than 2°C was considered a positive interaction between the ligand and receptor protein ([Huynh and Partch, 2015]).

[5] = cited from earlier work
[6] = pure compounds at 100 μg/ml, carbachol 10 μM

remaining activity at 100 µg/mL ([1]; carbachol 10 μM): 82.3 ± 1.8%
inhibition at 100 µg/mL [1, 6]: 17.8 ± 1.75%
Compound: O=c1c(-c2ccc(O)c(O)c2)coc2c([C@@H]3O[C@H](CO)[C@@H](O)[C@H](O)[C@H]3O)c(O)ccc12 [3′-Hydroxypuerarin, 3′-hydroxypuerarin]

IC10 value [1]: 34.94 ± 6.75 µg/mL (≈ 123 µM)
IC50 [1]: 201 µM
concentration at 2 h ([2]; urine, oral): 26 ± 7 ng/mL
concentration at 4 h ([2]; urine, oral): 85 ± 57 ng/mL
concentration at 6 h ([2]; urine, oral): 30 ± 14 ng/mL
concentration at 8 h ([2]; urine, oral): 28 ± 5 ng/mL
Compound: COc1ccc(-c2coc3cc(O)cc(O)c3c2=O)cc1 [Biochanin A, Biochanin A (genistein 4′-methyl ether)]

IC50 [1]: > 231 µM
Compound: O=c1c(-c2ccc(O)cc2)coc2cc(O[C@@H]3O[C@H](CO)[C@@H](O)[C@H](O)[C@H]3O)cc(O)c12 [Genistin, genistin (genistein-7-O-glucoside)]

remaining activity at 100 µg/mL ([1]; carbachol 10 μM): 89.3 ± 9.2%
inhibition at 100 µg/mL [1, 6]: 10.7 ± 9.24%
Compound: O=c1c(-c2ccc(O)cc2)coc2c([C@@H]3O[C@H](CO[C@@H]4OC[C@](O)(CO)[C@H]4O)[C@@H](O)[C@H](O)[C@H]3O)c(O)ccc12 [Puerarin apioside, puerarin apioside]

Continued, compound first:

Compound: O=c1c(-c2ccc(O)cc2)coc2cc(O)ccc12 [Daidzein, daidzein]
ΔTm at 100 µg/mL (BSA): ~0.58 °C
inhibition at 12.5 µg/mL [3]: 15%
IC10 value [1]: 8.15 ± 1.85 µg/mL (≈ 32.1 µM)
IC50 [1]: 158 µM
concentration at 2 h ([2]; urine, oral): 4400 ± 1000 ng/mL
concentration at 4 h ([2]; urine, oral): 15900 ± 9300 ng/mL
concentration at 6 h ([2]; urine, oral): 8130 ± 2660 ng/mL
concentration at 8 h ([2]; urine, oral): 14400 ± 5140 ng/mL
ΔTm at 100 µg/mL ([4]; 100 μg/ml, against 1% DMSO, ΔTm higher than 2°C = positive interaction): 2.12 °C
binding to the human M3 receptor protein (verdict in words) ([4]; 100 μg/ml): positively bound
EC50 ([4]; 3.125–100 μg/ml, at 65.3°C, read-out: EC50 of concentration-dependent increase of Tm (converted)): 62.1 µM
Tm value of the human M3 receptor protein [4]: 66.29 ± 0.38 °C
plasma AUC ([5]; rat, in vivo, po): 4·4 μg·h/mL

Compound: O=c1c(-c2ccc(O)cc2)coc2cc(O)cc(O)c12 [Genistein, Genistein (5-hydroxyl daidzein)]
concentration at 2 h ([2]; in vivo): 517 ± 138 ng/mL
concentration at 4 h ([2]; in vivo): 1410 ± 1000 ng/mL
concentration at 6 h ([2]; in vivo): 327 ± 98 ng/mL
concentration at 8 h ([2]; in vivo): 342 ± 35 ng/mL

Compound: O=c1c(-c2ccc(O)cc2)coc2c([C@@H]3O[C@H](CO)[C@@H](O)[C@H](O)[C@H]3O)c(O)ccc12 [Puerarin, puerarin (daidzein-8-C-glucoside)]
IC10 value [1]: 2.90 ± 2.11 µg/mL (≈ 6.96 µM)
inhibition at 100 µg/mL [1]: 33.8 ± 3.05%
concentration at 2 h ([2]; urine, oral): 6380 ± 897 ng/mL
concentration at 4 h ([2]; urine, oral): 10300 ± 2480 ng/mL
concentration at 6 h ([2]; urine, oral): 3310 ± 325 ng/mL
concentration at 8 h ([2]; urine, oral): 2210 ± 164 ng/mL
binding to the human M3 receptor protein (verdict in words) ([4]; 100 μg/ml): very weak binding
Tm value of the human M3 receptor protein [4]: 64.92 ± 0.03 °C
plasma AUC ([5]; after oral administration of Gegen water extract, ref Wei et al., 2020): 15.1 µg·h/mL

Reference: publication PMC9576955, “Daidzein is the in vivo active compound of Puerariae Lobatae Radix water extract for muscarinic receptor-3 inhibition against overactive bladder” (Frontiers in Pharmacology, 2022)
